Consider one compound from paper PMC6108835, “Target-Based Discovery of an Inhibitor of the Regulatory Phosphatase PPP1R15B” (Cell, 2018).

For data set [1], the target named is T1, R15B (Homo sapiens, UniProt Q5SWA1).
T1 construct: cDNAs encoding amino acids 325-636 of R15A and 340-698 of R15B were cloned into pMAL-c5x; made in house; host or cells: E. coli BL21-Gold (DE3) pLysS
The data set can be described thus: Limited trypsin digestion of R15B. The note with it: R15 3 μM, compound 100 μM, trypsin 5 nM, 5 min, 22°C. How it is done: Reactions were initiated by addition of 5 nM of trypsin from bovine pancreas (Sigma-Aldrich), made up in PBS, and allowed to proceed for 5 min at 22°C, with shaking at 350 rpm. […] Proteins were visualized by staining with InstantBlue Protein Stain (Expedeon).

The test system of data set [2] is wild-type mice. As to the kind of experiment: Morris water maze. Format: in vivo, mouse. The following applies: 2 mg/kg for 2 weeks. How it is done: Morris water maze and the following fear conditioning were performed on C57BL/6J wild-type males aged 2.5 months. Mice were treatment- and test-naive before the treatment started. Treatment with Raphin1 started two weeks before and was continued during the behavioral tests.
The water maze consisted of a white circular tank (1.50 m diameter) filled with opaque water adjusted to 21 ± 1°C. For the hidden platform task, the escape platform (10 cm diameter) was positioned 1 cm below water surface in the center of one of the pool quadrants. The walls surrounding the water maze were hung with posters and flags, which served as visual cues and were visible during all stages of 5 trainings and testing. Movement of the mice within the pool was tracked and analyzed with a computerized tracking system (ViewPoint, France). During training mice were required to locate a submerged hidden platform by using only extra-maze cues. Each mouse received five blocks of training trials over five consecutive days. […] Spatial learning performance was assessed during a probe trial 1 hr after the last session of training, and for which the target platform was removed from the pool. To evaluate the performance during training trials the latency and distance traveled to find the hidden platform were measured. […]

In data set [3] the test system is brains of R15a −/− mice. The data set can be described thus: Monitoring translation rates in vivo, brains of R15a −/− mice. The following applies: 40 mg/kg. Also on record: species or system mouse. As for the experimental part:
3 months old treatment- and test-naive C57BL/6J males were treated as indicated. 30 min before the end of treatment mice were injected intraperitoneally with 0.75 mCi/kg radioactive label – 75% ^35S-methionine + 25% ^35S-cystine (Hartmann Analytic). At the end of treatment mice were culled by cervical dislocation, brains were extracted, fresh-frozen in liquid nitrogen and kept at −80°C until use. Tissue was homogenized and lysed in Laemmli Buffer (1 mL for 0.5 mg tissue). Lysates were boiled at 95°C for 5 min, sonicated and resolved on Bolt SDS-PAGE 4%–12% Bis-Tris gels (ThermoFisher Scientific). Gels were then stained with InstantBlue (Expedeon) and after the gels had been imaged they were transferred to a 20% ethanol, 7% acetic acid, 4% glycerol solution for 10 min. This was to prevent the gels from cracking while drying. The gels were transferred to filter paper and dried using a gel dryer. The gels were then exposed to a Storage Phosphor Screen (GE Healthcare) and analyzed by phosphorimaging using a Typhoon Imager Scanner (GE Healthcare).

For data set [4], the system named is R15a −/− cells. As to the kind of experiment: eIF2α phosphorylation and translation rates in R15a −/− MEF cells. The data set is classed as cell-based, mouse. The following applies: R15a −/− cells (genetic inactivation of R15A), 10 μM. As for the experimental part:
HeLa or MEF cells (90,000 cells/mL) were plated in 12-well plates (1 mL/well). The following day cells were treated as indicated; the medium was removed, fresh medium containing compound added and incubated at 37°C for the times indicated. The time course was performed in reverse order to facilitate collecting all samples at the same time. At the end of treatment cells were washed two times with ice-cold PBS and lysed in 150 μL Laemmli Buffer. Lysates were transferred to 1.5 mL eppendorf tubes, boiled at 95°C for 5 min, sonicated and resolved on Bolt SDS-PAGE 4%–12% Bis-Tris gels (ThermoFisher Scientific). Proteins were transferred to the nitrocellulose membrane using the iBlot 2 system (ThermoFisher Scientific). Membrane was blocked in 5% skimmed milk for 30 min and then probed with primary antibodies followed by incubation with the appropriate horseradish peroxidase-conjugated secondary antibodies (Promega). Proteins were visualized using ECL Prime (GE Healthcare) and imaged in the Chemi-Smart 5000 (Vilber-Lourmat, France) or ChemiDoc Touch (BioRad). Bands were quantified using ImageJ (NIH, USA). […]
HeLa or MEF cells (90,000 cells/mL) were plated in 12-well plates (1 mL/well). […] The gels were then exposed to a Storage Phosphor Screen (GE Healthcare) and analyzed by phosphorimaging using a Typhoon Imager Scanner (GE Healthcare).

T1 sequence (Q5SWA1 340-698): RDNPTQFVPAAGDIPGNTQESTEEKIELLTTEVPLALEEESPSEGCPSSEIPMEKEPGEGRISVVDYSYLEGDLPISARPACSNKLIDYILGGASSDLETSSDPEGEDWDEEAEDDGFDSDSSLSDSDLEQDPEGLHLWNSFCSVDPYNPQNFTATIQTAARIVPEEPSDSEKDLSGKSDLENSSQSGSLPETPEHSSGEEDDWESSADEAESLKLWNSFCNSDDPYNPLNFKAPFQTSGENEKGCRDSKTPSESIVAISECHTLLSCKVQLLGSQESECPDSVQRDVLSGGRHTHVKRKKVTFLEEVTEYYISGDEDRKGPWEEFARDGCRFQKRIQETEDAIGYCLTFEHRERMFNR

Turning to `[H]/N=C(\N)NN=Cc1cccc(Cl)c1Cl` [Raphin1, (E)-2-(2,3-dichlorobenzylidene)hydrazine-1-carboximidamide], the “Protease sensitivity of R15B (limited proteolysis, conformational change)” value in data set [1] is “protected”. For the same compound, the “Adverse effects on memory, Morris water maze” value in data set [2] was “no adverse effects”. In addition, the “Translation recovery in the brains (in words)” value in data set [3] was “recovery was reduced”. Besides, in data set [4], the “Raphin1-induced eIF2α phosphorylation and translation attenuation” value is given as “persisted”.
